The source of these data is patent US20210115104A1, “AMYLIN ANALOGUES” (Zealand Pharma A/S, priority 2015, published 2021).

For test [1], the target named is T1, human calcitonin receptor (hCTR2) (Homo sapiens, UniProt P30988).
T1 construct: expressed in transfected cells
T1 sequence (P30988 25-474): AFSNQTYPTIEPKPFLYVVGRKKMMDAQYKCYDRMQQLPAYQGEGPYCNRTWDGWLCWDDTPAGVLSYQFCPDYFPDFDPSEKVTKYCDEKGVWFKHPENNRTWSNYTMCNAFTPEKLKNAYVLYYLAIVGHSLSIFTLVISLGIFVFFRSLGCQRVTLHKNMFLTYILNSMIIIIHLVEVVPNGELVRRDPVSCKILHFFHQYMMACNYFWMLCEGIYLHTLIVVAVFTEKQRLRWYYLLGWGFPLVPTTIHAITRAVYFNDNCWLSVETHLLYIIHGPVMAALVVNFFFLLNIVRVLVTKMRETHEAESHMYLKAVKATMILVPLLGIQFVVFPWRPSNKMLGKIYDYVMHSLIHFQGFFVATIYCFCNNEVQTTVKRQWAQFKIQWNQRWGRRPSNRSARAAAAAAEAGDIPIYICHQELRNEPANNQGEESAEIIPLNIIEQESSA
Kind of test: hCTR2 cAMP assay (AlphaScreen) in COS7 cells. It is filed as cell-based. Conditions: cAMP induction, COS7 cells expressing hCTR2; Table 1; read-out: hCTR2 EC50. In a few lines: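 Stable hCTR2 clone in RAMP-naïve COS7 cells stimulated 15 min at 37 °C with increasing peptide concentrations in Tyrode buffer pH 7.4 containing IBMX and 0.1% casein. cAMP in lysates measured by AlphaScreen; EC50 from 4-parameter logistic fit.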
(cAMP levels reflect the balance of adenylyl cyclase and phosphodiesterase activity.)

Test [2] addresses T2, human amylin receptor 3 (hAMYR3), hCTR2 co-expressed with hRAMP3 (Homo sapiens, UniProt O60896+P30988).
T2 construct: expressed in transfected cells
T2 sequence (P30988 25-474): T1 sequence (P30988 25-474)
T2 sequence (O60896 24-148 partner): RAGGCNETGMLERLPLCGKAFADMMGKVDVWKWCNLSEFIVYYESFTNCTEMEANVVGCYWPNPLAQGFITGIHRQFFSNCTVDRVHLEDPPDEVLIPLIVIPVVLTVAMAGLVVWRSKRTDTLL
Kind of test: hAMYR3 cAMP assay (AlphaScreen) in COS7 cells. Conditions: cAMP induction, COS7 cells expressing hAMYR3; Table 1; read-out: hAMYR3 EC50. It is filed as cell-based. The method, boiled down:
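Stable COS7 clone co-expressing hCTR2 and hRAMP3 was exposed to increasing peptide concentrations in Tyrode buffer (pH 7.4) with 100 µM IBMX and 0.1% casein for 15 min at 37 °C. Lysate cAMP was measured by AlphaScreen; EC50 came from 4-parameter logistic fitting.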

*1 amine or outer side, *2 acyl side, *3 side chain or, on linkers, in order; H or OH if unused. Where a SMILES comes first, the peptide text is derived from it. Bridges are numbered along the chain shown (N, C = ends). [ ]: non-standard residue; d: D form. The star is where a group is joined. C20 diacid = O=C(O)CCCCCCCCCCCCCCCCCCC(=O)*; γGlu = O=C(O)[C@H](CCC(=O)[*:2])N[*:1]; Hyp = O=C(O)[C@@H]1C[C@@H](O)CN1; NMeI = CC[C@H](C)[C@H](NC)C(=O)O; Aad = N[C@@H](CCCC(=O)O)C(=O)O; Sar = CNCC(=O)O

By EC50 is commonly meant the concentration at which the effect is half-maximal. For `CC[C@H](C)[C@@H](C(=O)N[C@@H](CC(C)C)C(=O)N[C@@H](CO)C(=O)N[C@@H](CO)C(=O)N[C@H](C(=O)N[C@@H](CCC(=O)O)C(=O)N[C@H](C(=O)NCC(=O)N[C@@H](CO)C(=O)N[C@@H](CC(N)=O)C(=O)N[C@H](C(=O)N1C[C@H](O)C[C@H]1C(N)=O)[C@@H](C)O)C(C)C)[C@@H](C)O)N(C)C(=O)[C@H](C)NC(=O)CN(C)C(=O)[C@H](Cc1ccccc1)NC(=O)[C@H](CO)NC(=O)[C@H](CO)NC(=O)[C@H](CCCNC(=N)N)NC(=O)[C@H](CCC(N)=O)NC(=O)[C@H](CC(C)C)NC(=O)[C@H](Cc1ccccc1)NC(=O)[C@H](CC(=O)O)NC(=O)[C@H](C)NC(=O)[C@H](CC(C)C)NC(=O)[C@H](CCCNC(=N)N)NC(=O)[C@H](CCC(=O)O)NC(=O)[C@@H](NC(=O)[C@H](C)NC(=O)[C@@H]1CSSC[C@H](NC(=O)[C@H](CCCNC(=N)N)NC(=O)CC[C@H](NC(=O)CCCCCCCCCCCCCCCCCCC(=O)O)C(=O)O)C(=O)N[C@@H](CC(N)=O)C(=O)N[C@@H]([C@@H](C)O)C(=O)N[C@@H](C)C(=O)N[C@@H]([C@@H](C)O)C(=O)N1)[C@@H](C)O` [Compound 68, [19CD]-isoGlu-R-C( )-NTAT-C( )-ATERLADFLQRSSF-Gly(Me)-A-Ile(Me)-LSSTEVGSNT-Hyp-NH2] ({C20 diacid-γGlu}-RCNTATCATERLADFLQRSSF[Sar]A[NMeI]LSSTEVGSNT[Hyp]-NH2; disulfide 2-7), the EC50 in test [1] amounted to 0.32 nM; in test [2], 0.29 nM.
Regarding `CC[C@H](C)[C@@H](C(=O)N[C@@H](CC(C)C)C(=O)N[C@@H](CO)C(=O)N[C@@H](CO)C(=O)N[C@H](C(=O)N[C@@H](CCC(=O)O)C(=O)N[C@H](C(=O)NCC(=O)N[C@@H](CO)C(=O)N[C@@H](CO)C(=O)N[C@H](C(=O)N1C[C@H](O)C[C@H]1C(N)=O)[C@@H](C)O)C(C)C)[C@@H](C)O)N(C)C(=O)[C@H](C)NC(=O)CN(C)C(=O)[C@H](Cc1ccccc1)NC(=O)[C@H](CO)NC(=O)[C@H](CO)NC(=O)[C@H](CCCNC(=N)N)NC(=O)[C@H](CCC(N)=O)NC(=O)[C@H](CC(C)C)NC(=O)[C@H](Cc1ccccc1)NC(=O)[C@H](Cc1c[nH]cn1)NC(=O)[C@H](C)NC(=O)[C@H](CC(C)C)NC(=O)[C@H](CCCNC(=N)N)NC(=O)[C@H](CCC(=O)O)NC(=O)[C@@H](NC(=O)[C@H](C)NC(=O)[C@@H]1CSSC[C@H](NC(=O)[C@H](CCCNC(=N)N)NC(=O)CC[C@H](NC(=O)CCCCCCCCCCCCCCCCCCC(=O)O)C(=O)O)C(=O)N2CCC[C@H]2C(=O)N[C@@H]([C@@H](C)O)C(=O)N[C@@H](C)C(=O)N[C@@H]([C@@H](C)O)C(=O)N1)[C@@H](C)O` [Compound 70, [19CD]-isoGlu-R-C( )-PTAT-C( )-ATERLAHFLQRSSF-Gly(Me)-A-Ile(Me)-LSSTEVGSST-Hyp-NH2] ({C20 diacid-γGlu}-RCPTATCATERLAHFLQRSSF[Sar]A[NMeI]LSSTEVGSST[Hyp]-NH2; disulfide 2-7), the EC50 in test [1] turned out to be 0.35 nM; in test [2], 0.36 nM.
For the compound `CC[C@H](C)[C@@H](C(=O)N[C@@H](CC(C)C)C(=O)N[C@@H](CO)C(=O)N[C@@H](CO)C(=O)N[C@H](C(=O)N[C@@H](CCC(=O)O)C(=O)N[C@H](C(=O)NCC(=O)N[C@@H](CO)C(=O)NCC(=O)N[C@H](C(=O)N1C[C@H](O)C[C@H]1C(N)=O)[C@@H](C)O)C(C)C)[C@@H](C)O)N(C)C(=O)[C@H](C)NC(=O)CN(C)C(=O)[C@H](Cc1ccccc1)NC(=O)[C@H](CO)NC(=O)[C@H](CO)NC(=O)[C@H](CCCNC(=N)N)NC(=O)[C@H](CCC(N)=O)NC(=O)[C@H](CC(C)C)NC(=O)[C@H](Cc1ccccc1)NC(=O)[C@H](Cc1c[nH]cn1)NC(=O)[C@H](C)NC(=O)[C@H](CC(C)C)NC(=O)[C@H](CCCNC(=N)N)NC(=O)[C@H](CCC(=O)O)NC(=O)[C@@H](NC(=O)[C@H](C)NC(=O)[C@@H]1CSSC[C@H](NC(=O)[C@H](CCCNC(=N)N)NC(=O)CC[C@H](NC(=O)CCCCCCCCCCCCCCCCCCC(=O)O)C(=O)O)C(=O)N2CCC[C@H]2C(=O)N[C@@H]([C@@H](C)O)C(=O)N[C@@H](C)C(=O)N[C@@H]([C@@H](C)O)C(=O)N1)[C@@H](C)O` [Compound 72, [19CD]-isoGlu-R-C( )-PTAT-C( )-ATERLAHFLQRSSF-Gly(Me)-A-Ile(Me)-LSSTEVGSGT-Hyp-NH2] ({C20 diacid-γGlu}-RCPTATCATERLAHFLQRSSF[Sar]A[NMeI]LSSTEVGSGT[Hyp]-NH2; disulfide 2-7), the EC50 came to 0.35 nM in test [1] and 0.27 nM in test [2].
Turning to `CC[C@H](C)[C@@H](C(=O)N[C@@H](CC(C)C)C(=O)N[C@@H](CO)C(=O)N[C@@H](CO)C(=O)N[C@H](C(=O)N[C@@H](CCC(=O)O)C(=O)N[C@H](C(=O)NCC(=O)N[C@@H](CO)C(=O)N[C@H](C(=O)N[C@H](C(=O)N1C[C@H](O)C[C@H]1C(N)=O)[C@@H](C)O)[C@@H](C)O)C(C)C)[C@@H](C)O)N(C)C(=O)[C@H](C)NC(=O)CN(C)C(=O)[C@H](Cc1ccccc1)NC(=O)[C@H](CO)NC(=O)[C@H](CO)NC(=O)[C@H](CCCNC(=N)N)NC(=O)[C@H](CCC(N)=O)NC(=O)[C@H](CC(C)C)NC(=O)[C@H](Cc1ccccc1)NC(=O)[C@H](Cc1c[nH]cn1)NC(=O)[C@H](C)NC(=O)[C@H](CC(C)C)NC(=O)[C@H](CCCNC(=N)N)NC(=O)[C@H](CCC(N)=O)NC(=O)[C@@H](NC(=O)[C@H](C)NC(=O)[C@@H]1CSSC[C@H](NC(=O)[C@H](CCCNC(=N)N)NC(=O)CC[C@H](NC(=O)CCCCCCCCCCCCCCCCCCC(=O)O)C(=O)O)C(=O)N[C@@H](CC(N)=O)C(=O)N[C@@H]([C@@H](C)O)C(=O)N[C@@H](C)C(=O)N[C@@H]([C@@H](C)O)C(=O)N1)[C@@H](C)O` [Compound 73, [19CD]-isoGlu-R-C( )-NTAT-C( )-ATQRLAHFLQRSSF-Gly(Me)-A-Ile(Me)-LSSTEVGSTT-Hyp-NH2] ({C20 diacid-γGlu}-RCNTATCATQRLAHFLQRSSF[Sar]A[NMeI]LSSTEVGSTT[Hyp]-NH2; disulfide 2-7), the 50% effective concentration (EC50) in test [1] amounted to 0.12 nM; in test [2], 0.24 nM.
For `CC[C@H](C)[C@@H](C(=O)N[C@@H](CC(C)C)C(=O)N[C@@H](CO)C(=O)N[C@@H](CO)C(=O)N[C@H](C(=O)N[C@@H](CCC(=O)O)C(=O)N[C@H](C(=O)NCC(=O)N[C@@H](CO)C(=O)N[C@@H](CCCC(=O)O)C(=O)N[C@H](C(=O)N1C[C@H](O)C[C@H]1C(N)=O)[C@@H](C)O)C(C)C)[C@@H](C)O)N(C)C(=O)[C@H](C)NC(=O)CN(C)C(=O)[C@H](Cc1ccccc1)NC(=O)[C@H](CO)NC(=O)[C@H](CO)NC(=O)[C@H](CCCNC(=N)N)NC(=O)[C@H](CCC(N)=O)NC(=O)[C@H](CC(C)C)NC(=O)[C@H](Cc1ccccc1)NC(=O)[C@H](Cc1c[nH]cn1)NC(=O)[C@H](C)NC(=O)[C@H](CC(C)C)NC(=O)[C@H](CCCNC(=N)N)NC(=O)[C@H](CCC(N)=O)NC(=O)[C@@H](NC(=O)[C@H](C)NC(=O)[C@@H]1CSSC[C@H](NC(=O)[C@H](CCCNC(=N)N)NC(=O)CC[C@H](NC(=O)CCCCCCCCCCCCCCCCCCC(=O)O)C(=O)O)C(=O)N[C@@H](CC(N)=O)C(=O)N[C@@H]([C@@H](C)O)C(=O)N[C@@H](C)C(=O)N[C@@H]([C@@H](C)O)C(=O)N1)[C@@H](C)O` [Compound 75, [19CD]-isoGlu-R-C( )-NTAT-C( )-ATQRLAHFLQRSSF-Gly(Me)-A-Ile(Me)-LSSTEVGS-Aad-T-Hyp-NH2] ({C20 diacid-γGlu}-RCNTATCATQRLAHFLQRSSF[Sar]A[NMeI]LSSTEVGS[Aad]T[Hyp]-NH2; disulfide 2-7) the same measures were 0.36 nM and 0.26 nM.
With `CC[C@H](C)[C@@H](C(=O)N[C@@H](CC(C)C)C(=O)N[C@@H](CO)C(=O)N[C@@H](CO)C(=O)N[C@H](C(=O)N[C@@H](CCC(=O)O)C(=O)N[C@H](C(=O)NCC(=O)N[C@@H](CO)C(=O)N[C@@H](CC(N)=O)C(=O)N[C@H](C(=O)N1CCC[C@H]1C(N)=O)[C@@H](C)O)C(C)C)[C@@H](C)O)N(C)C(=O)[C@H](C)NC(=O)CN(C)C(=O)[C@H](Cc1ccccc1)NC(=O)[C@H](CO)NC(=O)[C@H](CO)NC(=O)[C@H](CCCNC(=N)N)NC(=O)[C@H](CCC(N)=O)NC(=O)[C@H](CC(C)C)NC(=O)[C@H](Cc1ccccc1)NC(=O)[C@H](Cc1c[nH]cn1)NC(=O)[C@H](C)NC(=O)[C@H](CC(C)C)NC(=O)[C@H](CCCNC(=N)N)NC(=O)[C@H](CCC(=O)O)NC(=O)[C@@H](NC(=O)[C@H](C)NC(=O)[C@@H]1CSSC[C@H](NC(=O)[C@H](CCCNC(=N)N)NC(=O)CC[C@H](NC(=O)CCCCCCCCCCCCCCCCCCC(=O)O)C(=O)O)C(=O)NCC(=O)N[C@@H]([C@@H](C)O)C(=O)N[C@@H](C)C(=O)N[C@@H]([C@@H](C)O)C(=O)N1)[C@@H](C)O` [Compound 78, [19CD]-isoGlu-R-C( )-GTAT-C( )-ATERLAHFLQRSSF-Gly(Me)-A-Ile(Me)-LSSTEVGSNTP-NH2] ({C20 diacid-γGlu}-RCGTATCATERLAHFLQRSSF[Sar]A[NMeI]LSSTEVGSNTP-NH2; disulfide 2-7), the EC50 in test [1] turned out to be 0.15 nM; in test [2] it was 0.24 nM.
